Source: the NIST ThermoML archive (doi:10.1021/acs.jced.7b00121)
± gives the expanded uncertainty stated by the source.

Conditions: 101.33 kPa, Liquid; for viscosity: Falling or rolling sphere viscometry; for mass density: Vibrating tube method

CCCCCCCCCC [decane]
Conditions | mass density [kg/m3] | viscosity [mPa·s]
288.15 K | 733.57 ± 1.5 | 0.987 ± 0.099
293.15 K | 729.81 ± 1.5 | 0.915 ± 0.092
298.15 K | 726.05 ± 1.5 | 0.852 ± 0.085
303.15 K | 722.28 ± 1.4 | 0.797 ± 0.08
308.15 K | 718.49 ± 1.4 | 0.747 ± 0.075
313.15 K | 714.69 ± 1.4 | 0.703 ± 0.07
318.15 K | 710.88 ± 1.4 | 0.663 ± 0.066
323.15 K | 707.06 ± 1.4 | 0.627 ± 0.063
328.15 K | 703.21 ± 1.4 | 0.593 ± 0.059
333.15 K | 699.36 ± 1.4 | 0.563 ± 0.056
338.15 K | 695.48 ± 1.4 | 0.536 ± 0.054
343.15 K | 691.59 ± 1.4 | 0.512 ± 0.051

CCCCCCC [heptane]
Conditions | mass density [kg/m3] | viscosity [mPa·s]
288.15 K | 688.13 ± 1.4 | 0.432 ± 0.043
293.15 K | 683.93 ± 1.4 | 0.412 ± 0.041
298.15 K | 679.71 ± 1.4 | 0.393 ± 0.039
303.15 K | 675.47 ± 1.4 | 0.377 ± 0.038
308.15 K | 671.2 ± 1.4 | 0.362 ± 0.036
313.15 K | 666.89 ± 1.4 | 0.348 ± 0.035
318.15 K | 662.55 ± 1.4 | 0.335 ± 0.034
323.15 K | 658.19 ± 1.3 | 0.324 ± 0.033
328.15 K | 653.79 ± 1.3 | 0.312 ± 0.031
333.15 K | 649.33 ± 1.3 | 0.302 ± 0.03
338.15 K | 644.84 ± 1.3 | 0.293 ± 0.029
343.15 K | 640.29 ± 1.3 | 0.284 ± 0.029

CCCCCCCCC [nonane]
Conditions | mass density [kg/m3] | viscosity [mPa·s]
288.15 K | 721.64 ± 1.4 | 0.763 ± 0.077
293.15 K | 717.78 ± 1.4 | 0.713 ± 0.072
298.15 K | 713.91 ± 1.4 | 0.669 ± 0.067
303.15 K | 710.03 ± 1.4 | 0.63 ± 0.063
308.15 K | 706.12 ± 1.4 | 0.594 ± 0.06
313.15 K | 702.2 ± 1.4 | 0.564 ± 0.057
318.15 K | 698.26 ± 1.4 | 0.535 ± 0.054
323.15 K | 694.3 ± 1.4 | 0.509 ± 0.051
328.15 K | 690.33 ± 1.4 | 0.485 ± 0.049
333.15 K | 686.34 ± 1.4 | 0.462 ± 0.046
338.15 K | 682.31 ± 1.4 | 0.443 ± 0.044
343.15 K | 678.26 ± 1.4 | 0.425 ± 0.043

CCCCCCCC [octane]
Conditions | mass density [kg/m3] | viscosity [mPa·s]
288.15 K | 706.54 ± 1.4 | 0.585 ± 0.059
293.15 K | 702.53 ± 1.4 | 0.552 ± 0.055
298.15 K | 698.51 ± 1.4 | 0.523 ± 0.052
303.15 K | 694.48 ± 1.4 | 0.496 ± 0.05
308.15 K | 690.42 ± 1.4 | 0.473 ± 0.047
313.15 K | 686.34 ± 1.4 | 0.45 ± 0.045
318.15 K | 682.24 ± 1.4 | 0.431 ± 0.043
323.15 K | 678.11 ± 1.4 | 0.412 ± 0.041
328.15 K | 673.95 ± 1.4 | 0.395 ± 0.04
333.15 K | 669.77 ± 1.4 | 0.379 ± 0.038
338.15 K | 665.55 ± 1.4 | 0.365 ± 0.037
343.15 K | 661.28 ± 1.3 | 0.352 ± 0.035
